One block for each compound: values may come before it.
How the values were obtained:
Translocator protein [1] = target: T1, Translocator protein (Homo sapiens, UniProt P30536)
Description: Binding affinity to human TSPO assessed as inhibition constant

Translocator protein [2] = target: Translocator protein (Rattus norvegicus, UniProt P16257)
Description: Binding affinity to rat TSPO receptor assessed as inhibition constant

Albumin = Albumin (Macaca fascicularis, UniProt A2V9Z4)
Description: Binding affinity to monkey albumin

physchem [3] = details: buffer, pH 6.8
Description: Lipophilicity, logD of compound at pH 6.8

physchem [4] = details: buffer, pH 7.4
Description: Lipophilicity, logD of compound at pH 7.4 by HPLC analysis

[5] = Lipophilicity, logD of the compound at pH 7.4; type: physicochemical; details: buffer
Translocator protein [6] = target: T1, Translocator protein; remark: listed apart in the source
Description: Binding affinity to human mitochondrial TSPO

T1 sequence (P30536 whole entry): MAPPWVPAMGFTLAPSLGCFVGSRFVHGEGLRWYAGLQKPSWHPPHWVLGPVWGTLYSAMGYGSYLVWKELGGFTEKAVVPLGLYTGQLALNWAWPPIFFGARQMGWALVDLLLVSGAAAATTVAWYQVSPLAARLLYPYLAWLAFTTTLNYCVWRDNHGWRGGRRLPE
Sequence of Albumin (A2V9Z4 whole entry): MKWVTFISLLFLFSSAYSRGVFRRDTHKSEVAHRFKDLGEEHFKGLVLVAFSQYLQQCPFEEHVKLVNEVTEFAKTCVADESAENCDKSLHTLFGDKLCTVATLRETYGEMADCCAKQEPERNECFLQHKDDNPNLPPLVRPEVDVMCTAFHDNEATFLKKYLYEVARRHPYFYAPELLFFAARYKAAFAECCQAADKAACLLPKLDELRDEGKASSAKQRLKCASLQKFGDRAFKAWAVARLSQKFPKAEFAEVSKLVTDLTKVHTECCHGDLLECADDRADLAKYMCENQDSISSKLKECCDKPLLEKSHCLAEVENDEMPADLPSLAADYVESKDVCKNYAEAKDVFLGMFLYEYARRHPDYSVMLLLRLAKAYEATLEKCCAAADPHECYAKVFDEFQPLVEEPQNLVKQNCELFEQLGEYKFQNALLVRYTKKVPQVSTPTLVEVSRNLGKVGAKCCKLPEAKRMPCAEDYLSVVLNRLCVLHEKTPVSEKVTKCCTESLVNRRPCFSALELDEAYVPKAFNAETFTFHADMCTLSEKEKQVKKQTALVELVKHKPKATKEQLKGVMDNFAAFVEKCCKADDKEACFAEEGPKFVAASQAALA
Sequence of Translocator protein (Rattus norvegicus, UniProt P16257) (P16257 whole entry, looked up): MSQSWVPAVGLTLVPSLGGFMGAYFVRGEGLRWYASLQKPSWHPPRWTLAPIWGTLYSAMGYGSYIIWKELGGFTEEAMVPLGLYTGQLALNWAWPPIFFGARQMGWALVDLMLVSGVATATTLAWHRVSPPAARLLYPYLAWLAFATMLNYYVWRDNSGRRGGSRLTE

logD (physchem [4]): 3.81
SMILES: COc1ccc(OCC[18F])c(CN(C(C)=O)c2cc(F)ccc2Oc2ccccc2)c1

logD [5]: 3.01
Ki (Translocator protein [6]): 2.2 nM
SMILES: CC(=O)N(Cc1ccccc1O[11CH3])c1cnccc1Oc1ccccc1

Continued, compound first:

SMILES: COc1ccccc1CN(C(=O)C[18F])c1cnccc1Oc1ccccc1
Ki (Translocator protein [1]): 0.997 nM
Ki (Translocator protein [2]): 0.18 nM
Ki (Albumin): 0.3 nM
logD (physchem [3]): 4.01

SMILES: CC[C@@H](C)N([11CH3])C(=O)c1cc2ccccc2c(-c2ccccc2Cl)n1
logD (physchem [4]): 3.97

SMILES: CCCN(CCC)C(=O)Cc1c(-c2ccc(OCC[18F])cc2)nc2c(Cl)cc(Cl)cn12
logD (physchem [4]): 3
